Among the data in US10093671B2, “2-oxo-6,7-dihydrobenzo[a]quinolizine-3-carboxylic acid derivatives for the treatment and prophylaxis of hepatitis B virus infection” (Hoffmann-La Roche Inc., priority 2015, dated 2018) are IC50 values, retold here.

Structures can show the parent of a compound that is named as a salt.

The assay has as its system HBsAg. Put plainly: microbe, parasite or virus in culture. The settings on record: Hepatitis B virus, HepG2.2.15, read-out: IC50 (HBsAg secretion reduced by 50% compared to the no drug control).

Method: HepG2.2.15 cells (Acs et al. Proc Natl Acad Sci USA, 84, (1987), 4641-4), a constitutively HBV-expressing cell line were cultured in DMEM+Glutamax-I medium (Invitrogen, Carlsbad, Calif., USA), supplemented with 10% fetal bovine serum (Invitrogen) and G418 (Invitrogen) at a final concentration of 200 mg/L and maintained in 5% CO2 at 37° C.
HepG2.2.15 cells were seeded in duplicate into white, 96-well plates at 1.5×10^4 cells/well. The cells were treated with a three-fold serial dilution series of the compounds in DMSO. The final DMSO concentration in all wells was 1% and DMSO was used as no drug control.
The HBsAg chemiluminescence immunoassay (CLIA) kit (Autobio Diagnostics Co., Zhengzhou, China, Catalog number: CL0310-2) was used to measure the levels of secreted HBV antigens semi-quantitatively. For the detection 50 μL/well culture supernatant was used and HBsAg was quantified using HBsAg chemiluminescence immunoassay (CLIA) kit (Autobio Diagnostics Co., Zhengzhou, China, Catalog number: CL0310-2), 50 μL of the supernatant was transferred to the CLIA assay plate and 50 μL of enzyme conjugate reagent was added into each well. The plates were sealed and gently agitated for 1 hour at room temperature. The supernatant-enzyme-mixture was discarded and wells were washed 6 times with 300 μL of PBS. The residual liquid was removed by plating the CLIA plate right side down on absorbent tissue paper. 25 μL of substrates A and B were added to each well. Luminance was measured using a luminometer (Mithras LB 940 Multimode Microplate Reader) after 10 minutes incubation. Dose-response curves were generated and the IC50 value was extrapolated by using the E-WorkBook Suite (ID Business Solutions Ltd., Guildford, UK). The IC50 was defined as the compound concentration (or conditioned media log dilution) at which HBsAg secretion was reduced by 50% compared to the no drug control.

By IC50 is commonly meant the concentration that inhibits the measured activity by half. In the case of `COc1cc2c(cc1OCCCCCCN)CC(c1cccs1)n1cc(C(=O)O)c(=O)cc1-2` (stereo not shown) [Example 22, 9-(6-aminohexoxy)-10-methoxy-2-oxo-6-(2-thienyl)-6,7-dihydrobenzo[a]quinolizine-3-carboxylic Acid Formate], the 50% inhibitory concentration (IC50) worked out at 21 nM.

In the case of `COc1cc2c(cc1OCCCC(=O)O)CC(c1cccs1)n1cc(C(=O)O)c(=O)cc1-2` (stereo not shown) [Example 30, 9-(3-carboxypropoxy)-10-methoxy-2-oxo-6-(2-thienyl)-6,7-dihydrobenzo[a]quinolizine-3-carboxylic Acid], the half-maximal inhibitory concentration (IC50) worked out at 320 nM.

`COc1cc2c(cc1OCCCS(C)(=O)=O)CC(c1cccs1)n1cc(C(=O)O)c(=O)cc1-2` (stereo not shown) [Example 32, 10-methoxy-9-(3-methylsulfonylpropoxy)-2-oxo-6-(2-thienyl)-6,7-dihydrobenzo[a]quinolizine-3-carboxylic Acid]: the IC50 came to 110 nM.

With `COc1cc2c(cc1OCCCSC)CC(c1cccs1)n1cc(C(=O)O)c(=O)cc1-2` (stereo not shown) [Example 31, 10-methoxy-9-(3-methylsulfanylpropoxy)-2-oxo-6-(2-thienyl)-6,7-dihydrobenzo[a]quinolizine-3-carboxylic Acid], the IC50 is 4 nM.

As to `CCc1cc2c(cc1OC)-c1cc(=O)c(C(=O)O)cn1C(c1cccs1)C2` (stereo not shown) [Example 34, 9-ethyl-10-methoxy-2-oxo-6-(2-thienyl)-6,7-dihydrobenzo[a]quinolizine-3-carboxylic Acid], the IC50 is 24 nM.

Take `COc1cc2c(cc1OCc1ccccc1)CC(c1cccs1)n1cc(C(=O)O)c(=O)cc1-2` (stereo not shown) [Example 12, 9-benzyloxy-10-methoxy-2-oxo-6-(2-thienyl)-6,7-dihydrobenzo[a]quinolizine-3-carboxylic Acid]: the 50% inhibitory concentration (IC50) came out at 5 nM.

As to `COc1cc2c(cc1OCCCN1CCCCC1)CC(c1cccs1)n1cc(C(=O)O)c(=O)cc1-2` (stereo not shown) [Example 18, 10-methoxy-2-oxo-9-[3-(1-piperidyl)propoxy]-6-(2-thienyl)-6,7-dihydrobenzo[a]quinolizine-3-carboxylic Acid Formate], the IC50 came to 97 nM.

As for `COc1cc2c(cc1C)CC(c1cccs1)n1cc(C(=O)O)c(=O)cc1-2` (stereo not shown) [Example 33, 10-methoxy-9-methyl-2-oxo-6-(2-thienyl)-6,7-dihydrobenzo[a]quinolizine-3-carboxylic Acid], the IC50 is 35 nM.

As for `COCCCOc1cc2c(cc1Cl)-c1cc(=O)c(C(=O)O)cn1C(c1cc3ccccc3s1)C2` (stereo not shown) [Example 37, 6-(benzothiophen-2-yl)-10-chloro-9-(3-methoxypropoxy)-2-oxo-6,7-dihydrobenzo[a]quinolizine-3-carboxylic Acid], the concentration for half-maximal inhibition (IC50) was 4420 nM.

`COc1ccc2c(c1C)CC(c1cccs1)n1cc(C(=O)O)c(=O)cc1-2` (stereo not shown) [Example 11, 9-methoxy-8-methyl-2-oxo-6-(2-thienyl)-6,7-dihydrobenzo[a]quinolizine-3-carboxylic Acid]: the IC50 worked out at 170 nM.

Consider `COc1cc2c(cc1OCCCCCCNC(=O)OC(C)(C)C)CC(c1cccs1)n1cc(C(=O)O)c(=O)cc1-2` (stereo not shown) [Example 21, 9-[6-(tert-butoxycarbonylamino)hexoxy]-10-methoxy-2-oxo-6-(2-thienyl)-6,7-dihydrobenzo[a]quinolizine-3-carboxylic Acid], for which the IC50 came to 6 nM.

With `COc1cc2c(cc1OCCCn1cncn1)CC(c1cccs1)n1cc(C(=O)O)c(=O)cc1-2` (stereo not shown) [Example 29, 10-methoxy-2-oxo-6-(2-thienyl)-9-[3-(1,2,4-triazol-1-yl)propoxy]-6,7-dihydrobenzo[a]quinolizine-3-carboxylic Acid], the 50% inhibitory concentration (IC50) is 64 nM.

For the molecule `COc1cc2c(cc1OCCCO)CC(c1cccs1)n1cc(C(=O)O)c(=O)cc1-2` (stereo not shown) [Example 17, 9-(3-hydroxypropoxy)-10-methoxy-2-oxo-6-(2-thienyl)-6,7-dihydrobenzo[a]quinolizine-3-carboxylic Acid], the IC50 came out at 18 nM.

As to `COc1cc2c(cc1OCCCn1cccn1)CC(c1cccs1)n1cc(C(=O)O)c(=O)cc1-2` (stereo not shown) [Example 16, 10-methoxy-2-oxo-9-(3-pyrazol-1-ylpropoxy)-6-(2-thienyl)-6,7-dihydrobenzo[a]quinolizine-3-carboxylic Acid], the concentration for half-maximal inhibition (IC50) was found to be 9 nM.

In the case of `COCCCOc1cc2c(cc1OC)-c1cc(=O)c(C(=O)O)cn1C(c1ccccc1C)C2` (stereo not shown) [Example 10, 10-methoxy-9-(3-methoxypropoxy)-6-(o-tolyl)-2-oxo-6,7-dihydrobenzo[a]quinolizine-3-carboxylic Acid], the IC50 stood at 10 nM.

Regarding `COc1cc2c(cc1OCC(C)(C)CO)CC(c1cccs1)n1cc(C(=O)O)c(=O)cc1-2` (stereo not shown) [Example 26, 9-(3-hydroxy-2,2-dimethyl-propoxy)-10-methoxy-2-oxo-6-(2-thienyl)-6,7-dihydrobenzo[a]quinolizine-3-carboxylic Acid], the IC50 came to 4 nM.

As for `COCCCOc1cc2c(cc1OC)-c1cc(=O)c(C(=O)O)cn1C(c1ccc(OC)cc1)C2` (stereo not shown) [Example 5, 10-methoxy-6-(4-methoxyphenyl)-9-(3-methoxypropoxy)-2-oxo-6,7-dihydrobenzo[a]quinolizine-3-carboxylic Acid], the half-inhibitory concentration (IC50) is 800 nM.

For the molecule `COc1cc2c(cc1OCC(F)(F)F)CC(c1cccs1)n1cc(C(=O)O)c(=O)cc1-2` (stereo not shown) [Example 27, 10-methoxy-2-oxo-6-(2-thienyl)-9-(2,2,2-trifluoroethoxy)-6,7-dihydrobenzo[a]quinolizine-3-carboxylic Acid], the IC50 came to 3 nM.

Turning to `COc1cc2c(cc1OCCCC#N)CC(c1cccs1)n1cc(C(=O)O)c(=O)cc1-2` (stereo not shown) [Example 19, 9-(3-cyanopropoxy)-10-methoxy-2-oxo-6-(2-thienyl)-6,7-dihydrobenzo[a]quinolizine-3-carboxylic Acid], the IC50 was found to be 5 nM.

On to `COc1cc2c(cc1OC)-c1cc(=O)c(C(=O)O)cn1C(c1cccs1)C2` (stereo not shown) [Example 13, 9,10-dimethoxy-2-oxo-6-(2-thienyl)-6,7-dihydrobenzo[a]quinolizine-3-carboxylic Acid], for which the IC50 stood at 6 nM.

Turning to `COc1cc2c(cc1OCC(C)C)CC(c1cccs1)n1cc(C(=O)O)c(=O)cc1-2` (stereo not shown) [Example 14, 9-isobutoxy-10-methoxy-2-oxo-6-(2-thienyl)-6,7-dihydrobenzo[a]quinolizine-3-carboxylic Acid], the IC50 turned out to be 2 nM.

For `COc1cc2c(cc1OCCCCCCNC(C)=O)CC(c1cccs1)n1cc(C(=O)O)c(=O)cc1-2` (stereo not shown) [Example 23, 9-(6-acetamidohexoxy)-10-methoxy-2-oxo-6-(2-thienyl)-6,7-dihydrobenzo[a]quinolizine-3-carboxylic Acid], the half-inhibitory concentration (IC50) worked out at 18 nM.

On to `COc1cc2c(cc1OCCCN1CCOCC1)CC(c1cccs1)n1cc(C(=O)O)c(=O)cc1-2` (stereo not shown) [Example 28, 10-methoxy-9-(3-morpholinopropoxy)-2-oxo-6-(2-thienyl)-6,7-dihydrobenzo[a]quinolizine-3-carboxylate], for which the IC50 turned out to be 10 nM.

As to `COCCCOc1cc2c(cc1OC)-c1cc(=O)c(C(=O)O)cn1C(c1ccc(F)cc1)C2` (stereo not shown) [Example 9, 6-(4-fluorophenyl)-10-methoxy-9-(3-methoxypropoxy)-2-oxo-6,7-dihydrobenzo[a]quinolizine-3-carboxylic Acid], the 50% inhibitory concentration (IC50) was 83 nM.

For the molecule `COc1cc2c(cc1OCCCCCCNS(C)(=O)=O)CC(c1cccs1)n1cc(C(=O)O)c(=O)cc1-2` (stereo not shown) [Example 24, 9-[6-(methanesulfonamido)hexoxy]-10-methoxy-2-oxo-6-(2-thienyl)-6,7-dihydrobenzo[a]quinolizine-3-carboxylic Acid], the 50% inhibitory concentration (IC50) was 10 nM.

Regarding `COc1cc2c(cc1OCCN1CCCC1=O)CC(c1cccs1)n1cc(C(=O)O)c(=O)cc1-2` (stereo not shown) [Example 20, 10-methoxy-2-oxo-9-[2-(2-oxopyrrolidin-1-yl)ethoxy]-6-(2-thienyl)-6,7-dihydrobenzo[a]quinolizine-3-carboxylic Acid], the IC50 came to 37 nM.

As for `COc1cc2c(cc1N1CCCC1)CC(c1cccs1)n1cc(C(=O)O)c(=O)cc1-2` (stereo not shown) [Example 36, 10-methoxy-2-oxo-9-pyrrolidin-1-yl-6-(2-thienyl)-6,7-dihydrobenzo[a]quinolizine-3-carboxylic Acid], the IC50 was 3 nM.

On to `COCCCOc1cc2c(cc1OC)-c1cc(=O)c(C(=O)O)cn1C(c1ccc(O)cc1)C2` (stereo not shown) [Example 4, 6-(4-hydroxyphenyl)-10-methoxy-9-(3-methoxypropoxy)-2-oxo-6,7-dihydrobenzo[a]quinolizine-3-carboxylic Acid], for which the 50% inhibitory concentration (IC50) turned out to be 1160 nM.

As for `CCCc1cc2c(cc1OC)-c1cc(=O)c(C(=O)O)cn1C(c1cccs1)C2` (stereo not shown) [Example 35, 10-methoxy-2-oxo-9-propyl-6-(2-thienyl)-6,7-dihydrobenzo[a]quinolizine-3-carboxylic Acid], the IC50 was found to be 22 nM.

As to `COCCCOc1cc2c(cc1OC)-c1cc(=O)c(C(=O)O)cn1C(c1ccc(OCc3ccccc3)cc1)C2` (stereo not shown) [Example 6, 6-(4-benzyloxyphenyl)-10-methoxy-9-(3-methoxypropoxy)-2-oxo-6,7-dihydrobenzo[a]quinolizine-3-carboxylic Acid], the 50% inhibitory concentration (IC50) amounted to 1930 nM.

In the case of `COc1cc2c(cc1OCCCCCCO)CC(c1cccs1)n1cc(C(=O)O)c(=O)cc1-2` (stereo not shown) [Example 25, 9-(6-hydroxyhexoxy)-10-methoxy-2-oxo-6-(2-thienyl)-6,7-dihydrobenzo[a]quinolizine-3-carboxylic Acid], the 50% inhibitory concentration (IC50) is 3 nM.
